In US20240247035A1, “STAPLED ANTIMICROBIAL PEPTIDES (STAMPS) AND USES THEREOF” (Lytica Therapeutics, Inc., priority 2021, published 2024) one finds IC50 data, which are given here for twelve molecules.

Data set [1] is described as follows: 48 hours cytotoxicity assay (CellTiter-Glo), liver toxicity. Conditions: human. The data set is classed as cell-based. Here is the method:
(§1) Cell culture: RPTEC were maintained in MEM media supplemented with growth factors. HEPG2 cell line was maintained in Eagle's Minimum Essential Medium (EMEM) supplemented with fetal bovine serum to a final concentration of 10%.
48 hours cytotoxicity assay: Cells were plated in a 96-well format, and after 4 hour incubation to allow attachment, serial dilutions of StAMPs from a 5 mg/mL water stock, or vehicle, were then added to the cells in a final volume of 100 μl. After incubating at 37° C. for 48 hours, 100 μl of CellTiter-Glo® reagent was added to the cells, and the plates were incubated 10 minutes at room temperature. Luminescence was then measured on a microplate reader.
(§2) Renal toxicity was measured after 90 minutes of incubation, while liver toxicity was measured after 48 hours of incubation with StAMPs. N/A=not tested.
Background: ATP-based viability assays read luminescence as a measure of living cells.

A short description of data set [2]: 90 minute cytotoxicity assay (LDH release), renal toxicity. The note with it: human. The data set is classed as cell-based. Here is the method: as §1
90 minute cytotoxicity assay: Cells were plated in a 96-well format, and after overnight incubation, media was replaced with fresh media. Serial dilutions of StAMPs from a 5 mg/mL water stock, or vehicle, were added to the cells in a final volume of 100 μl. After incubating at 37° C. for 90 min, 50 μl of cell culture media was transferred to a clear 96-well plate, incubated with 50 μl of lactate dehydrogenase (LDH) assay reagent for 10 min, and absorbance measured at 490 nm on a microplate reader.
as §2

A word on the IC50: it is the concentration at which inhibition is half-maximal. Read a low IC50 as greater potency in that assay.

SMILES strings stand for the structures. Values after ≈ are worked out from the molar mass of the structure shown. Bridge positions count the residues as written; N and C are the ends. Square brackets hold non-standard residues; d marks the D form. Peptide text beside a SMILES is read from it. S5 = C=CCCC[C@](C)(N)C(=O)O

Molecule `CC[C@H](C)[C@H](NC(=O)[C@H](CCCCN)NC(=O)[C@H](CCCCN)NC(=O)CNC(=O)[C@H](CCCCN)NC(=O)[C@]1(C)CCCC=CCCC[C@](C)(NC(=O)[C@@H](N)CCCCN)C(=O)N[C@@H](Cc2ccccc2)C(=O)N[C@@H](CO)C(=O)N[C@@H](CCCCN)C(=O)N1)C(=O)N[C@@H](CCCCN)C(=O)N[C@@H](CC(N)=O)C(=O)N[C@@H](CC(C)C)C(=O)N[C@@]1(C)CCCC=CCCC[C@@](C)(C(=O)N[C@@H](CCCCN)C(=O)NCC(N)=O)NC(=O)CNC(=O)[C@H](CO)NC(=O)[C@H]([C@@H](C)CC)NC1=O` [compound 25] (H-K[S5]FSK[S5]KGKKIKNL[S5]ISG[S5]KG-NH2; staple 2-6, 15-19) had an IC50 at 48 hours in data set [1] of 49 µg/mL (≈ 20.8 µM). The molecule further returned an IC50 at 90 min in data set [2] of 109 µg/mL (≈ 46.2 µM).

In turn, `CC[C@H](C)[C@H](NC(=O)CN)C(=O)N[C@@H](Cc1ccccc1)C(=O)N[C@@H](CO)C(=O)N[C@@H](CCCCN)C(=O)N[C@@H](CC(C)C)C(=O)N[C@@]1(C)CCCC=CCCC[C@@](C)(C(=O)N[C@@H](CCCCN)C(=O)N[C@@H](CC(N)=O)C(=O)N[C@@H](CC(C)C)C(=O)N[C@@H](CC(C)C)C(=O)N[C@H](C(=O)N[C@@H](CO)C(=O)NCC(=O)N[C@@H](CC(C)C)C(=O)N[C@@H](CCCCN)C(=O)NCC(N)=O)[C@@H](C)CC)NC(=O)[C@H](CCCCN)NC(=O)[C@H](CCCCN)NC(=O)CNC1=O` [compound 40] (H-GIFSKL[S5]GKK[S5]KNLLISGLKG-NH2; staple 7-11) came in with an IC50 at 48 hours in data set [1] of 17 µg/mL (≈ 7.55 µM). The IC50 at 90 min in data set [2] is 11 µg/mL (≈ 4.89 µM).

Take `CC[C@H](C)[C@@H]1NC(=O)[C@@](C)(NC(=O)[C@H](CC(C)C)NC(=O)[C@H](CC(N)=O)NC(=O)[C@H](CCCCN)NC(=O)[C@H](CC(C)C)NC(=O)[C@H](CCCCN)NC(=O)[C@H](CCCCN)NC(=O)CNC(=O)[C@H](C)NC(=O)[C@]2(C)CCCC=CCCC[C@](C)(NC(=O)CN)C(=O)N[C@@H](CCCCN)C(=O)N[C@@H](CO)C(=O)N[C@@H](CCCCN)C(=O)N2)CCCC=CCCC[C@@](C)(C(=O)N[C@@H](CCCCN)C(=O)NCC(N)=O)NC(=O)CNC(=O)[C@H](CO)NC1=O` [compound 12] (H-G[S5]KSK[S5]AGKKLKNL[S5]ISG[S5]KG-NH2; staple 2-6, 15-19): half-maximal inhibition in data set [1] (IC50 at 48 hours) required 91 µg/mL (≈ 41.1 µM). The IC50 at 90 min in data set [2] is more than 200 µg/mL.

`CC[C@H](C)[C@H](NC(=O)[C@H](CCCCN)NC(=O)[C@H](CCCCN)NC(=O)CNC(=O)[C@H](C)NC(=O)[C@]1(C)CCCC=CCCC[C@](C)(NC(=O)CN)C(=O)N[C@@H](Cc2ccccc2)C(=O)N[C@@H](CO)C(=O)N[C@@H](CCCCN)C(=O)N1)C(=O)N[C@@H](CCCCN)C(=O)N[C@@H](CC(N)=O)C(=O)N[C@@H](CC(C)C)C(=O)N[C@@]1(C)CCCC=CCCC[C@@](C)(C(=O)N[C@@H](CCCCN)C(=O)N[C@@H](CC(N)=O)C(N)=O)NC(=O)CNC(=O)[C@H](CO)NC(=O)[C@H]([C@@H](C)CC)NC1=O` [compound 10] (H-G[S5]FSK[S5]AGKKIKNL[S5]ISG[S5]KN-NH2; staple 2-6, 15-19) gave an IC50 at 48 hours in data set [1] of 16 µg/mL (≈ 6.99 µM). Also, in data set [2], half-maximal inhibition (IC50 at 90 min) was put at 18 µg/mL (≈ 7.86 µM).

In data set [1], `CC[C@H](C)[C@H](NC(=O)[C@H](CCCCN)NC(=O)[C@H](CCCCN)NC(=O)CNC(=O)[C@H](C)NC(=O)[C@]1(C)CCCC=CCCC[C@](C)(NC(=O)CN)C(=O)N[C@@H](CCCCN)C(=O)N[C@@H](CO)C(=O)N[C@@H](CCCCN)C(=O)N1)C(=O)N[C@@H](CCCCN)C(=O)N[C@@H](CC(N)=O)C(=O)N[C@@H](CC(C)C)C(=O)N[C@@]1(C)CCCC=CCCC[C@@](C)(C(=O)N[C@@H](CCCCN)C(=O)N[C@@H](CC(N)=O)C(N)=O)NC(=O)CNC(=O)[C@H](CO)NC(=O)[C@H]([C@@H](C)CC)NC1=O` [compound 11] (H-G[S5]KSK[S5]AGKKIKNL[S5]ISG[S5]KN-NH2; staple 2-6, 15-19) came in with an IC50 at 48 hours of 125 µg/mL (≈ 55 µM). Besides, in data set [2], the IC50 at 90 min is 186 µg/mL (≈ 81.9 µM).

As to `CC[C@H](C)[C@H](NC(=O)[C@H](CCCCN)NC(=O)[C@H](CCCCN)NC(=O)CNC(=O)[C@H](CCCCN)NC(=O)[C@]1(C)CCCC=CCCC[C@](C)(NC(=O)CN)C(=O)N[C@@H](Cc2ccccc2)C(=O)N[C@@H](CO)C(=O)N[C@@H](CCCCN)C(=O)N1)C(=O)N[C@@H](CCCCN)C(=O)N[C@@H](CC(N)=O)C(=O)N[C@@H](CCCCN)C(=O)N[C@@]1(C)CCCC=CCCC[C@@](C)(C(=O)N[C@@H](CCCCN)C(=O)NCC(N)=O)NC(=O)CNC(=O)[C@H](CO)NC(=O)[C@H]([C@@H](C)CC)NC1=O` [compound 30] (H-G[S5]FSK[S5]KGKKIKNK[S5]ISG[S5]KG-NH2; staple 2-6, 15-19), the IC50 at 48 hours in data set [1] was more than 200 µg/mL. The IC50 at 90 min in data set [2] is more than 200 µg/mL.

Take `CC[C@H](C)[C@H](NC(=O)[C@H](CCCCN)NC(=O)[C@H](CCCCN)NC(=O)[C@H](CCCCN)NC(=O)[C@H](CCCCN)NC(=O)[C@]1(C)CCCC=CCCC[C@](C)(NC(=O)CN)C(=O)N[C@@H](Cc2ccccc2)C(=O)N[C@@H](CO)C(=O)N[C@@H](CCCCN)C(=O)N1)C(=O)N[C@@H](CCCCN)C(=O)N[C@@H](CC(N)=O)C(=O)N[C@@H](CC(C)C)C(=O)N[C@@]1(C)CCCC=CCCC[C@@](C)(C(=O)N[C@@H](CCCCN)C(=O)NCC(N)=O)NC(=O)CNC(=O)[C@H](CO)NC(=O)[C@H]([C@@H](C)CC)NC1=O` [compound 27] (H-G[S5]FSK[S5]KKKKIKNL[S5]ISG[S5]KG-NH2; staple 2-6, 15-19): the IC50 at 48 hours in data set [1] turned out to be 35 µg/mL (≈ 14.8 µM). The IC50 at 90 min in data set [2] came to 42 µg/mL (≈ 17.8 µM).

In data set [1], `CC[C@H](C)[C@@H]1NC(=O)[C@@](C)(NC(=O)[C@H](CCCCN)NC(=O)[C@H](CCCCN)NC(=O)CNC(=O)[C@H](CCCCN)NC(=O)[C@]2(C)CCCC=CCCC[C@](C)(NC(=O)CN)C(=O)N[C@@H](Cc3ccccc3)C(=O)N[C@@H](CO)C(=O)N[C@@H](CCCCN)C(=O)N2)CCCC=CCCC[C@@](C)(C(=O)N[C@@H](CCCCN)C(=O)NCC(N)=O)NC(=O)CNC(=O)[C@H](CO)NC1=O` [compound 42] (H-G[S5]FSK[S5]KGKK[S5]ISG[S5]KG-NH2; staple 2-6, 11-15) returned an IC50 at 48 hours of more than 200 µg/mL. Also, in data set [2], the IC50 at 90 min is more than 200 µg/mL.

Molecule `CC[C@H](C)[C@@H]1NC(=O)[C@@](C)(NC(=O)[C@H](CC(C)C)NC(=O)[C@H](CC(N)=O)NC(=O)[C@H](CCCCN)NC(=O)[C@H](CC(C)C)NC(=O)[C@H](CCCCN)NC(=O)[C@H](CCCCN)NC(=O)CNC(=O)[C@H](C)NC(=O)[C@]2(C)CCCC=CCCC[C@](C)(NC(=O)CN)C(=O)N[C@@H](Cc3ccccc3)C(=O)N[C@@H](CO)C(=O)N[C@@H](CCCCN)C(=O)N2)CCCC=CCCC[C@@](C)(C(=O)N[C@@H](CCCCN)C(=O)N[C@@H](CC(N)=O)C(N)=O)NC(=O)CNC(=O)[C@H](CO)NC1=O` [compound 13] (H-G[S5]FSK[S5]AGKKLKNL[S5]ISG[S5]KN-NH2; staple 2-6, 15-19) displayed an IC50 at 48 hours in data set [1] of 210 µg/mL (≈ 91.7 µM). Also, the IC50 at 90 min in data set [2] worked out at 17 µg/mL (≈ 7.42 µM).

Consider `CC[C@H](C)[C@H](NC(=O)[C@H](CCCCN)NC(=O)[C@H](CCCCN)NC(=O)CNC(=O)[C@H](CCCCN)NC(=O)[C@]1(C)CCCC=CCCC[C@](C)(NC(=O)CN)C(=O)N[C@@H](CCCCN)C(=O)N[C@@H](CO)C(=O)N[C@@H](CCCCN)C(=O)N1)C(=O)N[C@@H](CCCCN)C(=O)N[C@@H](CC(N)=O)C(=O)N[C@@H](CC(C)C)C(=O)N[C@@]1(C)CCCC=CCCC[C@@](C)(C(=O)N[C@@H](CCCCN)C(=O)N[C@@H](CC(N)=O)C(=O)NCC(=O)NCC(=O)NCC(=O)N[C@@H](CCC(=O)O)C(N)=O)NC(=O)[C@H](Cc2ccccc2)NC(=O)[C@H](CO)NC(=O)[C@H]([C@@H](C)CC)NC1=O` [compound 24] (H-G[S5]KSK[S5]KGKKIKNL[S5]ISF[S5]KNGGGE-NH2; staple 2-6, 15-19), for which the IC50 at 48 hours in data set [1] turned out to be 16 µg/mL (≈ 5.89 µM). Also, the IC50 at 90 min in data set [2] is 112 µg/mL (≈ 41.2 µM).

In data set [1], `CC[C@H](C)[C@H](NC(=O)[C@H](CCCCN)NC(=O)[C@H](CCCCN)NC(=O)CNC(=O)[C@H](CCCCN)NC(=O)[C@]1(C)CCCC=CCCC[C@](C)(NC(=O)CN)C(=O)N[C@@H](Cc2ccccc2)C(=O)N[C@@H](CO)C(=O)N[C@@H](CCCCN)C(=O)N1)C(=O)N[C@@H](CCCCN)C(=O)N[C@@H](CC(N)=O)C(=O)N[C@@H](CC(C)C)C(=O)N[C@@H](CC(C)C)C(=O)N[C@@]1(C)CCCC=CCCC[C@@](C)(C(=O)N[C@@H](CCCCN)C(=O)NCC(=O)NCC(=O)N[C@@H](CCC(=O)O)C(N)=O)NC(=O)[C@H](CC(C)C)NC(=O)CNC(=O)[C@H](CO)NC1=O` [compound 39] (H-G[S5]FSK[S5]KGKKIKNLL[S5]SGL[S5]KGGE-NH2; staple 2-6, 16-20) returned an IC50 at 48 hours of more than 200 µg/mL. In data set [2], this molecule had an IC50 at 90 min of more than 200 µg/mL.

With `CC[C@H](C)[C@H](NC(=O)[C@H](CCCCN)NC(=O)[C@H](CCCCN)NC(=O)CNC(=O)[C@H](CCCCN)NC(=O)[C@]1(C)CCCC=CCCC[C@](C)(NC(=O)CN)C(=O)N[C@@H](CCCCN)C(=O)N[C@@H](CO)C(=O)N[C@@H](CCCCN)C(=O)N1)C(=O)N[C@@H](CCCCN)C(=O)N[C@@H](CC(N)=O)C(=O)N[C@@H](CC(C)C)C(=O)N[C@@]1(C)CCCC=CCCC[C@@](C)(C(=O)N[C@@H](CCCCN)C(=O)NCC(N)=O)NC(=O)CNC(=O)[C@H](CO)NC(=O)[C@H]([C@@H](C)CC)NC1=O` [compound 2] (H-G[S5]KSK[S5]KGKKIKNL[S5]ISG[S5]KG-NH2; staple 2-6, 15-19), in data set [1], the midpoint of inhibition, the IC50 at 48 hours, lay at 109 µg/mL (≈ 48 µM). Moreover, in data set [2], half-maximal inhibition (IC50 at 90 min) required 203 µg/mL (≈ 89.4 µM).
